Reference: ChEMBL document CHEMBL3885861, “Open TG-GATES”

Species on record: Rattus norvegicus
Assay: Open TG-GATES - Regimen: Single
Assay type: toxicity, organism-based, Sprague-Dawley
Parameters: regimen Single, gender Male, age 6 weeks
Conditions: in vivo, po, 3 mg/kg, route gavage, dose level Middle; for APTT / Bas / Eos / Fbg / Hb / Ht / Lym / MCH / MCHC / MCV / Mono / PT / Plat / RBC / Ret / WBC: tissue Blood; for KIDNEY_L / KIDNEY_R / KIDNEY_TOTAL: tissue Kidney; for LIVER: tissue Liver

`C#C[C@]1(O)CC[C@H]2[C@@H]3CCc4cc(O)ccc4[C@H]3CC[C@@]21C` [ETHINYL ESTRADIOL] was tested, and the TERMINAL_BW (3 h) was 198.2 g, the APTT (3 h) was 15.8 s and the Bas (3 h) was 0%. The Eos (3 h) was 1%, the Fbg (3 h) was 257.8 mg/dL and the Hb (3 h) was 12.9 g/dL. It also gave a Ht (3 h) of 39.4%, a Lym (3 h) of 75.8% and an MCH (3 h) of 21.4 pg. For the same molecule, the MCHC (3 h) was 32.9%, the MCV (3 h) was 65 fL and the Mono (3 h) was 3.6%. The PT (3 h) was 12.2 s, the Plat (3 h) was 110.2 x10_4/uL and the RBC (3 h) was 607 x10_4/ul. It also gave a Ret (3 h) of 10.6%, a WBC (3 h) of 86.9 x10_2/uL and a KIDNEY_L (3 h) of 0.8 g. It also gave a KIDNEY_R (3 h) of 0.8 g, a KIDNEY_TOTAL (3 h) of 1.7 g and an LIVER (3 h) of 8.5 g. It also gave an ALP (3 h, tissue Plasma) of 1631.6 IU/L, an ALT (3 h, tissue Plasma) of 47.8 IU/L and an AST (3 h, tissue Plasma) of 80.2 IU/L. The BUN (3 h, tissue Plasma) was 10.2 mg/dL, the CRE (3 h, tissue Plasma) was 0.2 mg/dL and the Cl (3 h, tissue Plasma) was 106.8 meq/L. For the same molecule, the GLC (3 h, tissue Plasma) was 183.4 mg/dL, the IP (3 h, tissue Plasma) was 9.2 mg/dL and the K (3 h, tissue Plasma) was 3.8 meq/L. The LDH (3 h, tissue Plasma) was 49.2 IU/L, the PL (3 h, tissue Plasma) was 142.6 mg/dL and the RALB (3 h, tissue Plasma) was 2.5 g/dL. For the same molecule, the TBIL (3 h, tissue Plasma) was 0.038 mg/dL, the TC (3 h, tissue Plasma) was 75.4 mg/dL and the TP (3 h, tissue Plasma) was 5.4 g/dL. The gamma-GTP (3 h, tissue Plasma) was 1.2 IU/L, the TERMINAL_BW (6 h) was 195.3 g and the APTT (6 h) was 14.7 s. For the same molecule, the Bas (6 h) was 0.2%, the Eos (6 h) was 0.8% and the Fbg (6 h) was 292.8 mg/dL. The Hb (6 h) was 13 g/dL, the Ht (6 h) was 38.9% and the Lym (6 h) was 69.4%. The MCH (6 h) was 21.9 pg, the MCHC (6 h) was 33.4% and the MCV (6 h) was 65.5 fL. It also gave a PT (6 h) of 12.2 s, a Plat (6 h) of 115.2 x10_4/uL and an RBC (6 h) of 594.2 x10_4/ul. For the same molecule, the Ret (6 h) was 9.8%, the WBC (6 h) was 98.2 x10_2/uL and the KIDNEY_L (6 h) was 0.9 g. The KIDNEY_R (6 h) was 0.9 g, the KIDNEY_TOTAL (6 h) was 1.7 g and the LIVER (6 h) was 8.1 g. The ALP (6 h, tissue Plasma) was 1993.6 IU/L, the ALT (6 h, tissue Plasma) was 54.6 IU/L and the AST (6 h, tissue Plasma) was 106.2 IU/L. For the same molecule, the BUN (6 h, tissue Plasma) was 6.6 mg/dL, the CRE (6 h, tissue Plasma) was 0.2 mg/dL and the Ca (6 h, tissue Plasma) was 10.6 mg/dL. The Cl (6 h, tissue Plasma) was 110 meq/L, the DBIL (6 h, tissue Plasma) was 0.012 mg/dL and the IP (6 h, tissue Plasma) was 10.4 mg/dL. The LDH (6 h, tissue Plasma) was 44.6 IU/L, the Na (6 h, tissue Plasma) was 144.4 meq/L and the PL (6 h, tissue Plasma) was 106.4 mg/dL. For the same molecule, the RALB (6 h, tissue Plasma) was 2.5 g/dL, the TBIL (6 h, tissue Plasma) was 0.038 mg/dL and the TC (6 h, tissue Plasma) was 51.8 mg/dL. For the same molecule, the TP (6 h, tissue Plasma) was 5.4 g/dL, the gamma-GTP (6 h, tissue Plasma) was 1.2 IU/L and the TERMINAL_BW (9 h) was 196.1 g. It also gave an APTT (9 h) of 15.7 s, a Bas (9 h) of 0% and an Eos (9 h) of 1%. For the same molecule, the Fbg (9 h) was 261.6 mg/dL, the Hb (9 h) was 12.8 g/dL and the Ht (9 h) was 37.6%. The Lym (9 h) was 72%, the MCH (9 h) was 22.3 pg and the MCHC (9 h) was 33.9%. It also gave an MCV (9 h) of 65.8 fL, a Mono (9 h) of 3% and a PT (9 h) of 12.7 s. It also gave a Plat (9 h) of 117.1 x10_4/uL, an RBC (9 h) of 572.4 x10_4/ul and a Ret (9 h) of 10.2%. The WBC (9 h) was 81.1 x10_2/uL, the KIDNEY_L (9 h) was 0.8 g and the KIDNEY_R (9 h) was 0.8 g. It also gave a KIDNEY_TOTAL (9 h) of 1.7 g, an LIVER (9 h) of 7.6 g and an ALP (9 h, tissue Plasma) of 1530.6 IU/L. For the same molecule, the ALT (9 h, tissue Plasma) was 36.4 IU/L, the AST (9 h, tissue Plasma) was 72 IU/L and the BUN (9 h, tissue Plasma) was 9 mg/dL. The CRE (9 h, tissue Plasma) was 0.2 mg/dL, the Ca (9 h, tissue Plasma) was 10.4 mg/dL and the Cl (9 h, tissue Plasma) was 109.2 meq/L. The DBIL (9 h, tissue Plasma) was 0.012 mg/dL, the IP (9 h, tissue Plasma) was 10.4 mg/dL and the K (9 h, tissue Plasma) was 3.7 meq/L. It also gave an LDH (9 h, tissue Plasma) of 39.6 IU/L, a Na (9 h, tissue Plasma) of 145.4 meq/L and a PL (9 h, tissue Plasma) of 95.4 mg/dL. For the same molecule, the RALB (9 h, tissue Plasma) was 2.6 g/dL, the TBIL (9 h, tissue Plasma) was 0.048 mg/dL and the TC (9 h, tissue Plasma) was 45.4 mg/dL. For the same molecule, the TP (9 h, tissue Plasma) was 5.3 g/dL, the gamma-GTP (9 h, tissue Plasma) was 1 IU/L and the TERMINAL_BW (24 h) was 200 g. It also gave an APTT (24 h) of 18.1 s, a Bas (24 h) of 0% and an Eos (24 h) of 1%. For the same molecule, the Fbg (24 h) was 220.8 mg/dL, the Ht (24 h) was 39% and the Lym (24 h) was 77.8%. For the same molecule, the MCH (24 h) was 22 pg, the MCHC (24 h) was 34% and the MCV (24 h) was 64.6 fL. The Mono (24 h) was 4%, the PT (24 h) was 13.4 s and the Plat (24 h) was 110.4 x10_4/uL. For the same molecule, the RBC (24 h) was 604.4 x10_4/ul, the Ret (24 h) was 8.1% and the WBC (24 h) was 92.7 x10_2/uL. For the same molecule, the KIDNEY_L (24 h) was 0.9 g, the KIDNEY_R (24 h) was 0.9 g and the KIDNEY_TOTAL (24 h) was 1.8 g. It also gave an LIVER (24 h) of 9.6 g, an ALP (24 h, tissue Plasma) of 2004.2 IU/L and an ALT (24 h, tissue Plasma) of 43 IU/L. The AST (24 h, tissue Plasma) was 70.6 IU/L, the BUN (24 h, tissue Plasma) was 10.8 mg/dL and the CRE (24 h, tissue Plasma) was 0.2 mg/dL. The Ca (24 h, tissue Plasma) was 10.8 mg/dL, the Cl (24 h, tissue Plasma) was 106.4 meq/L and the DBIL (24 h, tissue Plasma) was 0.024 mg/dL. The IP (24 h, tissue Plasma) was 7 mg/dL, the K (24 h, tissue Plasma) was 4.3 meq/L and the LDH (24 h, tissue Plasma) was 62.8 IU/L. The PL (24 h, tissue Plasma) was 106.4 mg/dL, the RALB (24 h, tissue Plasma) was 2.5 g/dL and the TBIL (24 h, tissue Plasma) was 0.042 mg/dL. For the same molecule, the TC (24 h, tissue Plasma) was 39 mg/dL and the TP (24 h, tissue Plasma) was 5.3 g/dL.
